Literature values as cited in US20140275170A1, “TASTE MASKING OF ANESTHETICS AND ANALGESICS” (priority 2013, published 2014).

Details: maximum doses of 7 mg/kg (550 mg)

Cc1cccc(C)c1NC(=O)C1CCCCN1C (stereo not shown) [mepivacaine]
Adverse effect at maximum doses: without adverse effect
